# Experimental data published in patent US12527849B2, “Apparatus for determining administration form of a composition of an engineered virus-based nanoparticle for a treatment of an autoimmune condition” (Diamante Srl, priority 2021, dated 2026).
# System: IL-1β
# Test: Cytokine ELISA in CIA mice, day 60: IL-1β
# Format: in vivo
# Source text: With continued reference to FIG. 1, in some embodiments, administration 116 may be done to an animal. As a non-limiting example, the animal may include a mouse, a fish, a rabbit, human, and the like. As a non-limiting example, administration 116 of composition of the engineered virus-based nanoparticle for a treatment of an autoimmune condition may be done to dilute, brown, and non-agouti (DBA) mice based on their susceptibility to collagen-induced arthritis (CIA). Female DBA/1 mice 6 to 8 weeks of age may be maintained under specific pathogen-free conditions. CIA may be induced by the intradermal tail base injection of 100 μg of chicken type II collagen (Sigma-Aldrich) as previously described. Five mice per group may be immunized on days 0 and 21 to induce arthritis. The onset of disease may be confirmed on the day that swelling or erythema may be observed in any paw, typically 4 to 10 days after the second immunization. […] CIA may be assessed using a macroscopic score system based on the visual identification of arthritic limbs. The clinical severity of arthritis may be evaluated as follows: Each mouse may be inspected every 2 to 3 days for three different parameters: (i) swelling of the hind ankle and foot, measured with calipers; (ii) erythema of each leg; and (iii) swelling of the fingers. The RA index for each mouse was expressed as the mean of the three scores from the individual parameters. At the end of the experiment (60 days), we determined the proportion of CD25+Foxp3+ cells in the lymph nodes and measured cytokine titers in the lymph nodes, joints, and serum.
# With continued reference to FIG. 1, in some embodiments, processor 104 may determine critical administration 124 as a function of a cytokine profile and a proportion of CD25^+ Foxp3^+ cells. […] In some embodiments, to quantify cytokines in DBA mice, joint tissues may be pulverized and resuspended in 1 ml of lysis medium per 100-mg joint weight for 60 min at 37′C, followed by centrifugation to remove debris. […]
smiles,measurement,setting,value
"C[C@@H]1C[C@H]2[C@@H]3CCC4=CC(=O)C=C[C@]4(C)[C@@]3(F)[C@@H](O)C[C@]2(C)[C@@]1(O)C(=O)CO [Dexamethasone, dexamethasone]",IL-1β J,"joint supernatant, CIA mice, day 60, mean n=3",38.43 pg/mL
same,IL-1β LN,"lymph node supernatant, CIA mice, day 60, mean n=3",65.63 pg/mL
same,IL-1β S,"serum pooled from five CIA mice, day 60",26.6 pg/mL
